Laboratory results taken from patent US12428430B2 (BRISTOL-MYERS SQUIBB COMPANY, priority 2018, dated 2025).

Columns and labels:
hLPA1 [1] = biological target: T1, hLPA1 (Homo sapiens, UniProt Q92633); experiment: LPA1 functional antagonist assay (LPA-induced calcium flux in CHO cells overexpressing human LPA1); assay type: cell-based; set-up: expressed in transfected cells; host or cells: Chinese hamster ovary (CHO) cells; settings: antagonist mode, inhibition of calcium flux induced by 10 nM LPA, read-out: hLPA1 IC50
Experimental: The effectiveness of compounds of the present invention as LPA1 inhibitors can be determined in an LPA1 functional antagonist assay as follows:
Chinese hamster ovary cells overexpressing human LPA1 were plated overnight (15,000 cells/well) in poly-D-lysine coated 384-well microplates (Greiner bio-one, Cat #781946) in DMEM/F12 medium (Gibco, Cat #11039). Following overnight culture, cells were loaded with calcium indicator dye (AAT Bioquest Inc, Cat #34601) for 30 minutes at 37° C. The cells were then equilibrated to room temperature for 30 minutes before the assay. Test compounds solubilized in DMSO were transferred to 384 well non-binding surface plates (Corning, Cat #3575) using the Labcyte Echo acoustic dispense and diluted with assay buffer [1×HBSS with calcium/magnesium (Gibco Cat #14025-092), 20 mM HEPES (Gibco Cat #15630-080) and 0.1% fatty acid free BSA (Sigma Cat #A9205)] to a final concentration of 0.5% DMSO. Diluted compounds were added to the cells by FDSS6000 (Hamamatsu) at final concentrations ranging from 0.08 nM to 5 μM. and were then incubated for 20 min at room temperature at which time LPA (Avanti Polar Lipids Cat #857130C) was added at final concentrations of 10 nM to stimulate the cells. The compound IC50 value was defined as the concentration of test compound which inhibited 50% of the calcium flux induced by LPA alone. IC50 values were determined by fitting data to a 4-parameter logistic equation (GraphPad Prism, San Diego Calif.).

hLPA1 [2] = biological target: T1, hLPA1; experiment: hLPA1 Binding
nerve-injured mice = settings: pretreatment; cited from earlier work
[3] = test system: pancreatic cancer cell lines; settings: cited from earlier work
UUO mice = settings: compared with LPA1 (−/−) mice; cited from earlier work
[4] = test system: mouse epithelial renal cell line, MCT; settings: co-treatment with LPA, MCT cells; cited from earlier work
[5] = test system: human foetal lung fibroblasts; settings: Tager et al. Nature Medicine 2008; cited from earlier work

T1 sequence (Q92633 whole entry): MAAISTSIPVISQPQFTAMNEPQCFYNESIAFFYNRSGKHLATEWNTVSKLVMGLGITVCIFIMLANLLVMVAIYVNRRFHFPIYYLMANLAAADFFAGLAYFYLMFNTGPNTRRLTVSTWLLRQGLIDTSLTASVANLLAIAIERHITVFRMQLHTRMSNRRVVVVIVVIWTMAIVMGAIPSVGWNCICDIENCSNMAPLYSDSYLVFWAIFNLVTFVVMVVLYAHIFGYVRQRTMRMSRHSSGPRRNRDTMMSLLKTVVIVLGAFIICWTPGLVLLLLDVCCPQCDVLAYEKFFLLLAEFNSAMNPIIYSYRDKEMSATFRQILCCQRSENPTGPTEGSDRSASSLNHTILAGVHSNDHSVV

In the case of `Cc1noc(C23CCC(c4ccc(CC(=O)O)cc4)(CC2)OC3)c1NC(=O)O[C@H](C)c1ccccc1` [Example 54, (R)-2-(4-(4-(3-methyl-4-(((1-phenylethoxy)carbonyl)amino)isoxazol-5-yl)-2-oxabicyclo[2.2.2]octan-1-yl)phenyl)acetic acid], the IC50 (hLPA1 [1]) is reported as 0.088 µM.

Molecule `Cc1noc(C23CCC(c4ccc(CC(=O)O)cc4)(CC2)OC3)c1NC(=O)O[C@H](C)C1CC1` [Example 55, (R)-2-(4-(4-(4-(((1-cyclopropyl-ethoxy)carbonyl)amino)-3-methyl-isoxazol-5-yl)-2-oxabicyclo[2.2.2]octan-1-yl)phenyl)acetic acid] has a Ki (hLPA1 [2]) of 0.724 µM.

For `Cc1noc(C23CCC(c4ccc(CC(=O)O)cc4)(CC2)OC3)c1NC(=O)O[C@H](C)c1ccccc1Cl` [Example 56, (R)-2-(4-(4-(4-(((1-(2-chlorophenyl)ethoxy)carbonyl)amino)-3-methyl-isoxazol-5-yl)-2-oxabicyclo[2.2.2]octan-1-yl)phenyl)acetic acid], the IC50 (hLPA1 [1]) was 0.093 µM.

Molecule `Cc1noc(-c2ccc(C34CCC(CC(=O)O)(CC3)OC4)c(F)c2)c1NC(=O)O[C@H](C)c1ccccc1` [Example 57, 2-(4-(2-fluoro-4-(3-methyl-4-((((R)-1-phenylethoxy)carbonyl)amino)isoxazol-5-yl)phenyl)-2-oxabicyclo[2.2.2]octan-1-yl)acetic acid] has an IC50 (hLPA1 [1]) of 0.041 µM.

With `Cc1noc(-c2ccc(C34CCC(CCC(=O)O)(CC3)CO4)cc2)c1NC(=O)O[C@H](C)c1ccccc1` [Example 58, 3-(1-(4-(3-methyl-4-((((R)-1-phenylethoxy)carbonyl)amino)isoxazol-5-yl)phenyl)-2-oxabicyclo[2.2.2]octan-4-yl)propanoic acid] the IC50 (hLPA1 [1]) was 0.157 µM.

With `Cc1noc(-c2cccc(C34CCC(CC(=O)O)(CC3)OC4)c2)c1NC(=O)O[C@H](C)c1ccccc1Cl` [Example 59, 2-(4-(3-(4-((((R)-1-(2-chlorophenyl)ethoxy)carbonyl)amino)-3-methylisoxazol-5-yl)phenyl)-2-oxabicyclo[2.2.2]octan-1-yl)acetic acid] the IC50 (hLPA1 [1]) was 0.095 µM.

For `C[C@@H](N)[C@H]1CC[C@H](C(=O)Nc2ccncc2)CC1` [Example Y-27632], the allodynia and hyperalgesia (nerve-injured mice) is listed as “completely abolished”.

For `Cc1noc(-c2ccc(CSCCC(=O)O)cc2)c1NC(=O)OC(C)c1ccccc1Cl` (stereo not drawn) [Ki16425], the “in vitro migration in response to LPA and ascites from pancreatic cancer patients” value ([3]; Yamada et al, J. Biol. Chem. 2004) is listed as “effectively blocked”, the “LPA-induced and ascites-induced invasion activity” value ([3]; highly peritoneal metastatic pancreatic cancer cell line) is listed as “blocked” and the “development of renal fibrosis in UUO mice” value (UUO mice) is listed as “closely resembled the profile of LPA1 (−/−) mice”. For the same molecule, the “LPA-induced expression of the profibrotic cytokine CTGF” value [4] was “almost completely suppressed” and the “chemotaxis of human foetal lung fibroblasts induced by BAL from IPF patients” value [5] was “blocked”.
